Results published in US7332501B2, “Indol-3-yl-carbonyl-spiro-piperidine derivatives as V1a receptor antagonists” (Hoffmann-La Roche Inc., priority 2005, dated 2008).

Biological target: T1, human V1a receptor (Homo sapiens, UniProt P37288)
T1 construct: expressed in transfected cells; host or cells: HEK293 cells, transiently transfected; cell membranes
Assay: human V1a receptor binding (3H-Vasopressin SPA, HEK293 membranes)
Conditions: displacement of 4 nM 3H-Vasopressin, membranes of HEK293 cells transiently transfected with human V1a receptor; Ki from IC50 by Cheng-Prussoff
Protocol: The human V1a receptor was cloned by RT-PCR from total human liver RNA. The coding sequence was subcloned in an expression vector after sequencing to confirm the identity of the amplified sequence. […] Cell membranes were prepared from HEK293 cells transiently transfected with the expression vector and grown in 20 liter fermenters with the following protocol.
50 g cells are resuspended in 30 ml freshly prepared ice cold Lysis buffer (50 mM HEPES, 1 mM EDTA, 10 mM MgCl2 adjusted to pH=7.4+complete cocktail of protease inhibitor (Roche Diagnostics)). The cells are homogenized with Polytron for 1 min and sonicated on ice for 2×2 minutes at 80% intensity (Vibracell sonicator). The preparation is centrifuged 20 min at 500 g at 4° C., the pellet is discarded and the supernatant centrifuged 1 hour at 43,000 g at 4° C. (19,000 rpm). The pellet is resuspended in 12.5 ml Lysis buffer+12.5 ml Sucrose 20% and homogenized using a Polytron for 1-2 min. The protein concentration is determined by the Bradford method and aliquots are stored at −80° C. until use. For binding studies 60 mg Yttrium silicate SPA beads (Amersham) are mixed with an aliquot of membrane in binding buffer (50 mM Tris, 120 mM NaCl, 5 mM KCl, 2 mM CaCl2, 10 mM MgCl2) for 15 minutes with mixing. 50 ul of bead/membrane mixture is then added to each well of a 96 well plate, followed by 50 ul of 4 nM 3H-Vasopressin (American Radiolabeled Chemicals). For total binding measurement 100 ul of binding buffer are added to the respective wells, for non-specific binding 100 ul of […] cold vasopressin and for compound testing 100 ul of a serial dilution of each compound in 2% DMSO. The plate is incubated 1 h at room temperature, centrifuged 1 min at 1000 g and counted on a Packard Top-Count. Non-specific binding counts are subtracted from each well and data is normalized to the maximum specific binding set at 100%. To calculate an IC 50 the curve is fitted using a non-linear regression model (XLfit), and the Ki is calculated using the Cheng-Prussoff equation.

T1 sequence (P37288 whole entry): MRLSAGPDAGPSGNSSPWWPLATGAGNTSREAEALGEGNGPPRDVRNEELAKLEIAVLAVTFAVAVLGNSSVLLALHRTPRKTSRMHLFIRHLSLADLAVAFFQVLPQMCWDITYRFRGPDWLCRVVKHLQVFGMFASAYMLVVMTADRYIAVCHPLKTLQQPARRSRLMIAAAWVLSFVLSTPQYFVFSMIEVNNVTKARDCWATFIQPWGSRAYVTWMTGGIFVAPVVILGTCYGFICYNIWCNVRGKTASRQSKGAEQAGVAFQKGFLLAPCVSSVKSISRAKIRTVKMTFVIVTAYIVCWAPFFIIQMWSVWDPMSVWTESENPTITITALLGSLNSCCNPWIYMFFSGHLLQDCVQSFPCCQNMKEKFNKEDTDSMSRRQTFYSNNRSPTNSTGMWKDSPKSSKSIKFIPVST

Row | Compound | Ki [nM]
1 | O=C(c1cn(CCN2CCCC2)c2cc(Cl)ccc12)N1CCC2(CC1)COc1ccccc12 [Example 82, 1′-{[6-chloro-1-(2-pyrrolidin-1-ylethyl)-1H-indol-3-yl]carbonyl}spiro[1-benzofuran-3,4′-piperidine]] | 12.9
2 | O=C(c1c[nH]c2cc(Cl)ccc12)N1CCC2(C=Cc3ccccc32)CC1 [Example 5, 1′-[(6-chloro-1H-indol-3-yl)carbonyl]spiro[indene-1,4′-piperidine]] | 8.2
3 | CN(C)C(=O)Cn1cc(C(=O)N2CCC3(CC2)OCc2ccccc23)c2ccc(Cl)cc21 [Example 206, 2-[6-Chloro-3-(1′H,3H-spiro[2-benzofuran-1,4′-piperidin]-1′-ylcarbonyl)-1H-indol-1-yl]-N,N-dimethylacetamide] | 0.5
4 | O=C(c1cn(Cc2cnccn2)c2cc(Cl)ccc12)N1CCC2(CC1)OCc1ccccc12 [Example 234, 1′-{[6-Chloro-1-(pyrazin-2-ylmethyl)-1H-indol-3-yl]carbonyl}-3H-spiro[2-benzofuran-1,4′-piperidine]] | 1.8
5 | O=C(Cn1cc(C(=O)N2CCC3(CC2)OCc2ccccc23)c2ccc(Cl)cc21)N1CCNCC1 [Example 211, 1′-{[6-Chloro-1-(2-oxo-2-piperazin-1-ylethyl)-1H-indol-3-yl]carbonyl}-3H-spiro[2-benzofuran-1,4′-piperidine]] | 0.8
6 | Cc1c(C(=O)N2CCC3(CC2)OC(=O)c2ccc(OCCO)cc23)c2ccccc2n1Cc1ccccc1 [Example 122, 1′-[(1-benzyl-2-methyl-1H-indol-3-yl)carbonyl]-6-(2-hydroxyethoxy)-3H-spiro[2-benzofuran-1,4′-piperidin]-3-one] | 5.2
7 | Cc1cc(Cn2cc(C(=O)N3CCC4(CC3)OC(=O)c3cc(F)ccc34)c3ccc(Cl)cc32)on1 [Example 184, 1′-({6-Chloro-1-[(3-methylisoxazol-5-yl)methyl]-1H-indol-3-yl}carbonyl)-5-fluoro-3H-spiro[2-benzofuran-1,4′-piperidin]-3-one] | 3.4
8 | O=C(c1cn(CCn2cccc2)c2cc(Cl)ccc12)N1CCC2(CC1)COc1ccccc12 [Example 86, 1′-({6-chloro-1-[2-(1H-pyrrol-1-yl)ethyl]-1H-indol-3-yl}carbonyl)spiro[1-benzofuran-3,4′-piperidine]] | 13.2

The remaining lines, values ahead:

Row | Ki [nM] | Compound
9 | 2.5 | O=C(c1cn(-c2cccc(F)c2)c2cc(Cl)ccc12)N1CCC2(CC1)OCc1ccccc12 [Example 223]
10 | 6.2 | O=C1OC2(CCN(C(=O)c3cn(C(=O)N4CCCCC4)c4cc(Cl)ccc34)CC2)c2ccccc21 [Example 108, 1′-{[6-Chloro-1-(piperidin-1-ylcarbonyl)-1H-indol-3-yl]carbonyl}-3H-spiro[2-benzofuran-1,4′-piperidin]-3-one]
11 | 2.3 | Cc1cc(Cn2cc(C(=O)N3CCC4(CC3)OCc3ccccc34)c3ccc(Cl)cc32)on1 [Example 239, 1′-({6-Chloro-1-[(3-methylisoxazol-5-yl)methyl]-1H-indol-3-yl}carbonyl)-3H-spiro[2-benzofuran-1,4′-piperidine]]
12 | 10.4 | NC(=O)Cn1cc(C(=O)N2CCC3(CC2)OC(=O)c2cc(F)ccc23)c2ccc(Cl)cc21 [Example 115, 2-{6-Chloro-3-[(5-fluoro-3-oxo-1′H,3H-spiro[2-benzofuran-1,4′-piperidin]-1′-yl)carbonyl]-1H-indol-1-yl}acetamide]
13 | 11.1 | O=C1OC2(CCN(C(=O)c3cn(C(=O)c4cc(F)cc(F)c4)c4cc(Cl)ccc34)CC2)c2ccccc21 [Example 130, 1′-{[6-Chloro-1-(3,5-difluorobenzoyl)-1H-indol-3-yl]carbonyl}-3H-spiro[2-benzofuran-1,4′-piperidin]-3-one]
14 | 2.4 | CN(C)CCn1cc(C(=O)N2CCC3(CC2)OC(=O)c2cc(F)ccc23)c2ccc(Cl)cc21 [Example 111, 1′-({6-Chloro-1-[2-(dimethylamino)ethyl]-1H-indol-3-yl}carbonyl)-5-fluoro-3H-spiro[2-benzofuran-1,4′-piperidin]-3-one]
